# From patent publication US20200281897A1, “INDAZOLE DERIVATIVES FOR CANCER TREATMENT” (Servicio Andaluz de Salud, priority 2016, published 2020)
# Tests used:
# MOLM-13 = test: WST-1 cell viability assay, MOLM-13; type: cell-based, human; settings: MOLM-13, 18 hours
# Description: (§1) U937, NB-4, KG-1, and MOLM-13 (DMSZ, Braunschweig, Germany) were cultured in complete RPMI 1640 medium (with 2 mM of L-glutamine, 100 mg of penicillin, 100 μg/ml of streptomycin, and with 10% FBS), supplemented with 10 mM HEPES, 1×NaPuvuvato, and 1× non-essential amino acids.
# (§2) The cell lines and primary cells were cultured in 96-well plates (5×10e5 cells per well) with the addition of the indicated concentrations of WIN 55,212-2 or PGN cannabinoids in DMSO or with the solvent only in triplicate at 18, 48, and 72 hours. Caspase inhibitor Z-VAD (OMe)-FMK or the CB2 receptor antagonist PGN-8, -37, and -70, together with the cannabinoid WIN-55,212-2, were also added. Cell viability was determined by means of the WST-1 assay [2-(4-iodophenyl)-3-(4-nitrophenyl)-5-(2,4-disulfophenyl)-2H-tetrazolium] according to the manufacturer's instructions (Dojindo Molecular Technologies). Optical densities were measured at 450 nm using a Multiskan™ Go Microplate plate reader (Thermo Fisher Scientific, Waltham, Mass., USA).
# (§3) Now it will be analyzed whether the exposure to cannabinoids had any effect on the viability of the tumor cells in vitro. […]
# KG-1 = test: WST-1 cell viability assay, KG-1; type: cell-based, human; settings: KG-1, 18 hours
# Description: as §1, §2, §3
# NB-4 = test: WST-1 cell viability assay, NB-4; type: cell-based, human; settings: NB-4, 18 hours
# Description: as §1, §2, §3
# [1] = system: hematopoietic progenitor populations; test: Effect on normal hematopoiesis in healthy BALB/c mice; type: in vivo; settings: 5 mg/kg/day for 7 and 28 days
# Description: The effect of the cannabinoid on normal hematopoiesis was also tested by means of the treatment of healthy BALB/c mice with WIN-55,212-2 at a dose of 5 mg/kg/day for 7 and 28 days. The bone marrow and the peripheral blood population were analyzed by means of flow cytometry and blood counts.
structure (smiles),measurement,setting,value
"CS(=O)(=O)O.Cc1c(C(=O)c2cccc3ccccc23)c2cccc3c2n1[C@H](CN1CCOCC1)CO3 [WIN-55, (R)-(+)-[2,3-dihydro-5-methyl-3-(4-morpholinomethyl)-pyrrolo[1,2,3]-1,4-benzoxazin-6-yl]-1-naphthalenylmethanone mesylate]",% viable cells at 50 μM,MOLM-13,56.6%
same,IC50,MOLM-13,25.9 µM
same,% viable cells at 50 μM,KG-1,57.4%
same,IC50,KG-1,33.2 µM
same,% viable cells at 50 μM,NB-4,49.1%
same,IC50,NB-4,25.1 µM
same,viability of hematopoietic progenitor populations,[1],do not affect the viability
